System: IRF3 activation in THP-1 Dual Cells
Experiment: IRF3 activation assay in THP-1 Dual Cells (QUANTI-Blue readout)
Format: cell-based
Conditions: Homo sapiens, THP1-Dual, 24 h
Experimental: THP-1 Dual Cells (Invivogen) were maintained in RPMI1640 medium with addition of 10% FBS, 100 μg/ml zeocin, 10 μg/ml blasticidin. Cells were added in a 96-well flat bottom assay plate at 100,000 per well in 100 μL complete RPMI medium. Test compounds were prepared by serial dilution in complete RPMI medium and 100 μL test compounds were transferred to each corresponding well. The assay plate was incubated at 37° C., 5% CO2 for 24 hours. After the overnight incubation, 20 μL of the culture supernatants were collected, followed by addition of 180 μL of QUANTI-Blue (Invivogen) to assess IRF3 activity. The amount of IRF3 activation was assessed by reading the absorbance at 620-655 nm with a microplate reader 2 hours later. The culture supernatant from the untreated THP-1 cells was used as the negative control. To determine the NF-κB activation, another 20 μL of culture supernatant were transferred to a 96-well white plate, followed by addition of 50 μL of Quanti-Luc™ assay solution (Invivogen). The amount of NF-κB activation induced by the test compounds were determined by the luminescence above the untreated control. EC50 determination was performed by fitting the curve of percent control activity versus the log of the compound concentration using the GraphPad Prism 6.0 software.

Structure (SMILES)	EC50 (Table 1, 24 hours incubation)	EC50 (Table 2, 24 hours incubation)
CCn1nc(C)cc1C(=O)Nc1nc2cc(C(N)=O)cc(C)c2n1C/C=C/Cn1c2ccccc2c2cnc(-c3cc(C)nn3CC)nc21 [Example 2, (E)-1-(4-(2-(1-ethyl-3-methyl-1H-pyrazol-5-yl)-9H-pyrimido[4,5-b]indol-9-yl)but-2-enyl)-2-(1-ethyl-3-methyl-1H-pyrazole-5-carboxamido)-7-methyl-1H-benzo[d]imidazole-5-carboxamide]	< 1000 nM	200 to 500 nM
CCn1nc(C)cc1C(=O)Nc1nc2cc(C(N)=O)cc(OC)c2n1C/C=C/Cn1c2ccc(C(N)=O)cc2c2cnc(-c3cc(C)nn3CC)nc21 [Example 4, (E)-9-(4-(5-carbamoyl-2-(1-ethyl-3-methyl-1H-pyrazole-5-carboxamido)-7-methoxy-1H-benzo[d]imidazol-1-yl)but-2-enyl)-2-(1-ethyl-3-methyl-1H-pyrazol-5-yl)-9H-pyrimido[4,5-b]indole-6-carboxamide]	< 1000 nM	500 to 1000 nM
CCn1nc(C)cc1C(=O)Nc1nc2cc(C(N)=O)cc(C)c2n1C/C=C/Cn1c2ccc(C(N)=O)cc2c2ccc(-c3cc(C)nn3CC)nc21 [Example 5, (E)-9-(4-(5-carbamoyl-2-(1-ethyl-3-methyl-1H-pyrazole-5-carboxamido)-7-methyl-1H-benzo[d]imidazol-1-yl)but-2-en-1-yl)-2-(1-ethyl-3-methyl-1H-pyrazol-5-yl)-9H-pyrido[2,3-b]indole-6-carboxamide]	< 1000 nM	50 to 200 nM
CCn1nc(C)cc1C(=O)Nc1nc2cc(C(N)=O)cc(C)c2n1C/C=C/Cn1c2ccc(C(N)=O)cc2c2cnc(-c3ccnn3CC)nc21 [Example 7, (E)-9-(4-(5-carbamoyl-2-(1-ethyl-3-methyl-1H-pyrazole-5-carboxamido)-7-methyl-1H-benzo[d]imidazol-1-yl)but-2-enyl)-2-(1-ethyl-1H-pyrazol-5-yl)-9H-pyrimido[4,5-b]indole-6-carboxamide]	< 1000 nM	200 to 500 nM

More lines, now with the values ahead:

EC50 (Table 1, 24 hours incubation)	EC50 (Table 2, 24 hours incubation)	Structure (SMILES)
< 1000 nM	50 to 200 nM	CCn1nc(C)cc1C(=O)Nc1nc2cc(C(N)=O)cc(C)c2n1C/C=C/Cn1c2ccc(C(N)=O)cc2c2cnc(-c3cc(C)nn3CC)nc21 [Example 1, (E)-9-(4-(5-carbamoyl-2-(1-ethyl-3-methyl-1H-pyrazole-5-carboxamido)-7-methyl-1H-benzo[d]imidazol-1-yl)but-2-enyl)-2-(1-ethyl-3-methyl-1H-pyrazol-5-yl)-9H-pyrimido[4,5-b]indole-6-carboxamide]
< 1000 nM		CCn1nc(C)cc1C(=O)Nc1nc2cc(C(N)=O)cc(C)c2n1C/C=C/Cn1c2ccc(C(N)=O)cc2c2cnc(-c3cc(C)nn3C)nc21 [Example 3, (E)-9-(4-(5-carbamoyl-2-(1-ethyl-3-methyl-1H-pyrazole-5-carboxamido)-7-methyl-1H-benzo[d]imidazol-1-yl)but-2-enyl)-2-(1,3-dimethyl-1H-pyrazol-5-yl)-9H-pyrimido[4,5-b]indole-6-carboxamide]
< 200 nM	< 50 nM	CCCn1nc(C)cc1-c1ncc2c3cc(C(N)=O)ccc3n(C/C=C/Cn3c(NC(=O)c4cc(C)nn4CC)nc4cc(C(N)=O)cc(C)c43)c2n1 [Example 6, (E)-9-(4-(5-carbamoyl-2-(1-ethyl-3-methyl-1H-pyrazole-5-carboxamido)-7-methyl-1H-benzo[d]imidazol-1-yl)but-2-enyl)-2-(3-methyl-1-propyl-1H-pyrazol-5-yl)-9H-pyrimido[4,5-b]indole-6-carboxamide]
< 1000 nM	500 to 1000 nM	CCc1nn(C)cc1-c1ncc2c3cc(C(N)=O)ccc3n(C/C=C/Cn3c(NC(=O)c4cc(C)nn4CC)nc4cc(C(N)=O)cc(C)c43)c2n1 [Example 8, (E)-9-(4-(5-carbamoyl-2-(1-ethyl-3-methyl-1H-pyrazole-5-carboxamido)-7-methyl-1H-benzo[d]imidazol-1-yl)but-2-enyl)-2-(3-ethyl-1-methyl-1H-pyrazol-4-yl)-9H-pyrimido[4,5-b]indole-6-carboxamide]
